Experimental data from article PMC12654037, “Norditerpene Natural Products from Subterranean Fungi with Anti-Parasitic Activity” (Microorganisms, 2025).

Experiments:
HuF fibroblast cell line = conditions: sub-confluent; ref Rusman et al. 2020 [25]; cited from earlier work
P. falciparum 3D7 = assay: Plasmodium falciparum growth inhibition assay (SYBR Green I), 3D7; conditions: 3D7, 72 h, read-out: EC50 3D7(M)
Procedure: (§2) Plasmodium falciparum growth inhibition assay: Antiplasmodial EC50 results were determined using a fluorescence-based SYBR Green I assay performed using asynchronous cultures [30, 35]. […] Plates were subsequently frozen at −80 °C to facilitate lysis. […] Relative fluorescence units (RFUs) were normalized based on chloroquine-treated and no treatment controls. Serial dilutions of compounds were prepared in RPMI with final assay conditions of ≤0.2% DMSO. Each assay was conducted in triplicate with three biological replicates.

C. parvum = C. parvum growth inhibition assay (Cp-NLuc-infected HCT-8 cells); assay type: cell-based, Cryptosporidium parvum; conditions: for EC50: Cryptosporidium parvum, HCT-8, intracellular nanoluciferase-expressing C. parvum in vitro, Figure 1 table, read-out: EC50 (μM), C. parvum; for parasite inhibition in pilot screen: CpNLuc-infected HCT-8 cells, initial dose 5 µg/mL
Procedure: C. parvum growth inhibition assays: The in vitro growth inhibition assay of C. parvum has been previously described. Briefly, clear-bottom, white-sided 96 well plates were seeded with HCT-8 cells. Once the cells reached between 50% and 75% confluency, they were infected with Cp-NLuc oocysts (10,000/well) in complete media containing 0.6% taurocholate. At 24 h post-infection (hpi), the infected cells were treated with compounds at various concentrations. DMSO was used as a vehicle control in parallel. Parasite growth was determined at 72 hpi by measuring relative luminescence units (RLUs) using Promega Nano-Glo substrate (Promega, Madison, WI, USA) and a SpectraMax® L Microplate Reader (Molecular Devices, San Jose, CA, USA). The percent inhibition of parasite growth was calculated as [(RLUDMSO − RLUcompound)/RLUDMSO] × 100.

P. falciparum line Dd2 = assay: Plasmodium falciparum growth inhibition assay (SYBR Green I), Dd2; conditions: for EC50: Plasmodium falciparum, DD2, 72 h, read-out: EC50 Dd2 (M)
Procedure: as §2

HFF cells = assay: HFF cytotoxicity assay; assay type: cell-based; conditions: confluent
Procedure: (§1) HCT-8 and HFF cytotoxicity assays: Cytotoxicity of the compounds was determined against both confluent (the conditions of the infection assays) and growing HCT-8 and HFF host cells, as previously described. Cells were seeded into white-sided, clear-bottom 96-well plates and grown to either 40% or 100% confluency. Compounds were added to cells at various concentrations up to 100 µM in a final DMSO concentration of 0.5%. DMSO was run in parallel as a vehicle control. After 48 h, the viability of the cells was determined by either quantification of cellular ATP (Cell-Titer Glo cell viability assay; Promega, Madison WI, USA) or by MTT assay. Viability was determined 24 h after compound addition to HFF cells or 48 h after compound addition to HCT-8 cells or HepG2 cells. The percent cell growth was then calculated with the following formula: % Cell Growth = [RLUcompound/RLUDMSO] × 100. Samples were run in triplicate with two to three biological replicates.

HCT-8 cells = assay: HCT-8 cytotoxicity assay; assay type: cell-based
Procedure: as §1

HepG2 human hepatocytes = assay: HepG2 cytotoxicity assay (MTS); assay type: cell-based; conditions: 48 h, mean +/- SD
Procedure: HepG2 cytotoxicity assay: Mammalian cell cytotoxicity was assessed in HepG2 human hepatocytes using an MTS 3-(4,5-dimethylthiazol-2-yl)-5-(3-carboxymethoxyphenyl)-2-(4-sulfophenyl)-2H-tetrazolium)-based cytotoxicity assay. For cytotoxicity testing, ∼2250 cells were seeded into each well of a 384-well microtiter plate and incubated for 24 h. Serial dilutions of the compounds were added in triplicate starting at 25 μM. Cells were further incubated for an additional 48 h at 37 °C in an atmosphere containing 5% CO2. Zero-growth control wells were incubated with 5% Triton X-100 for 5 min prior to MTS addition. Following the addition of MTS to all wells, the plates were incubated for an additional 4 h under the same environmental conditions before taking absorbance measurements. Absorbance values were recorded at 490 nm using a Synergy Neo2 multimode reader (BioTek), and values were normalized based on Triton X-100-lysed and no treatment controls. Samples were run in triplicate in each assay, and the experiments were repeated three times.

C. parvum sporozoites = assay: C. parvum invasion inhibition assay; assay type: cell-based, Cryptosporidium parvum; conditions: 100 nM, 3 h infection
Procedure: C. parvum excystation and invasion assays: Oocyst excystation rates in the presence of compounds were determined as previously described. The C. parvum invasion inhibition assays were conducted in two formats. In the first format, described previously, HCT-8 cells were seeded on glass slides (CELLTREAT Scientific Product, Pepperell, MA, USA) and allowed to grow to confluence. Oidiolactone A was added to the cells for one hour. TrtE and DMSO were run in parallel as positive and negative controls, respectively. The cell monolayers were then infected with 1.2 × 10^6 wild-type C. parvum oocysts. After 3 h of incubation at 37 °C, the slides were washed five times with 111 mM D-galactose, fixed with 4% paraformaldehyde, and permeabilized with 0.25% Triton-X. C. parvum sporozoites were detected with rabbit anti-gp40 [39] and Alexa Fluor 594 goat anti-rabbit antibodies. The HCT-8 cell nuclei were stained with 0.09 mM Hoechst. Slides were coded to enable unbiased counting, and sporozoites from at least 10 randomly selected fields were counted in each sample at 100× magnification (Zeiss® Axioscope 5). The percentage of invaded parasites was determined using the following equation: % Invaded parasites = [parasitescompound/parasitesDMSO] × 100. This experiment was run in duplicate with two biological replicates. […]

Row | Compound | TC50 HuF (sub-confluent) (HuF fibroblast cell line) [µM] | EC50 (P. falciparum 3D7) [M] | EC50 (C. parvum) [µM] | SI: selectivity index=EC50 HepG2/ EC50 compound (P. falciparum line Dd2) | EC50 (P. falciparum line Dd2) [M] | TC50 HFF (confluent) (HFF cells) [µM] | TC50 HCT-8 (confluent) (HCT-8 cells) [µM] | TC50 HCT-8 (sub-confluent) (HCT-8 cells) [µM] | TC50 HepG2 (HepG2 human hepatocytes) [µM] | parasite inhibition in pilot screen (C. parvum) | effect on parasite invasion (positive control) (C. parvum sporozoites)
1 | C[C@@]12CCC[C@]3(C)C4=CC(=O)OC[C@]45O[C@@H]5[C@@H](OC1=O)[C@@H]23 [compound 2, oidiolactone C] | > 30 | 2.78e-06 ± 3.97e-07 | 1.8 | 7 | 2.49e-06 ± 1.98e-07 | > 30 | > 30 | 1.35 ± 0.2 | 17.1 ± 0.821 |  | 
2 | C[C@@]12CCC[C@]3(C)C4=CC(=O)O[C@@H](O)[C@]45O[C@@H]5[C@@H](OC1=O)[C@@H]23 [compound 3, oidiolactone D] | > 30 | > 5e-06 |  |  | > 5e-06 |  |  |  | > 25 |  | 
3 | C[C@]12C(=O)O[C@@H]3[C@H]4O[C@@]45C(=CC(=O)O[C@H]5O)[C@@](C)(CC[C@H]1O)[C@@H]32 [compound 4, oidiolactone G] | > 30 | > 5e-06 |  |  | > 5e-06 |  |  |  | > 25 | eliminates activity | 
4 | COC(=O)/C=C1/[C@]2(C(OC)OC)O[C@@H]2[C@H]2OC(=O)[C@@]3(C)CCC[C@@]1(C)[C@@H]23 [compound 5, oidiolactone H] | > 30 |  |  |  |  |  |  |  |  | abolishes inhibitory activity | 
5 | COC(=O)/C=C1/[C@]2(C=O)O[C@@H]2[C@H]2OC(=O)[C@@]3(C)CCC[C@@]1(C)[C@@H]23 [compound 6, oidiolactone I] | > 30 | 3.65e-06 ± 5.96e-07 | 7.8 |  | > 4.99e-06 | > 30 | > 30 | 4.8 ± 0.7 | > 25 |  | 
6 | CO[C@H]1OC(=O)C=C2C1=C[C@H]1OC(=O)[C@@]3(C)[C@H](O)CC[C@@]2(C)[C@@H]13 [compound 8, oidiolactone J] | > 30 | > 5e-06 | 7.8 |  | > 5e-06 | > 30 | > 30 | > 30 | > 25 |  | 
7 | C[C@]12C(=O)O[C@@H]3C=C4C(=CC(=O)O[C@@H]4O)[C@@](C)(CC[C@H]1O)[C@@H]32 [compound 9, oidiolactone K] | > 30 | > 5e-06 |  |  | > 5e-06 |  |  |  | > 25 |  | 
8 | C[C@@]12CCC[C@]3(C)C4=CC(=O)O[C@H](O)C4=C[C@@H](OC1=O)[C@@H]23 [compound 10, yukonin] |  |  | 1.09 |  |  | > 30 | > 30 | 2.5 ± 0.3 |  |  | 
9 | C[C@]1(C(=O)O)CCC[C@]2(C)C3=CC(=O)OCC3=CC[C@@H]12 [compound 11, oidiodendronic acid] | > 30 | > 5e-06 | 9.1 |  | > 5e-06 | > 30 | > 30 | 19.7 ± 4.8 | > 25 |  | 
10 | C[C@@]12CCC[C@]3(C)c4cc(=O)occ4[C@H](O)[C@@H](OC1=O)[C@@H]23 [compound 12, oidiolactone L] | > 30 | > 5e-06 |  |  | > 5e-06 |  |  |  | > 25 | inactive | 
11 | C[C@]12CCC[C@](C)(C(=O)O)[C@@H]1C=C[C@]1(O)COC(=O)C[C@H]21 [compound 13, oidiolactone E] |  | > 5e-06 |  |  | > 5e-06 |  |  |  | > 25 |  | 
12 | C=C1C(O)C[C@@H]2[C@](C)(CCC[C@]2(C)C(=O)O)[C@H]1CC(=O)O (stereo partly drawn) [compound 14, LL-Z1271β] | > 30 | > 5e-06 |  |  | > 5e-06 |  |  |  | > 25 |  | 
13 | C[C@@H]1CCC2CC(=O)C[C@@H](O)CC/C=C/C=C\CC[C@H](C)OC(=O)[C@@H]3O[B-]45O[C@@H](C(=O)O[C@@H](C)CC/C=C\C=C\CC[C@H](O)CC(=O)CC6CC[C@@H](C)[C@]3(O6)O4)[C@@]1(O2)O5 [tartrolon E, reference compound] |  |  |  |  |  |  |  |  |  |  | completely inhibited parasite invasion
